Laboratory results published in US6133443A, “Optically active 1,4-dihydropyridine derivatives and process for the preparation thereof” (Mercian Corporation, priority 1996, dated 2000).

Experiment: Test for solubility in water (deionized water, stirring 3 minutes, presence or absence of insoluble matter)
Settings: not given

| Compound | solubility at 0.05 h [µg/mL] |
| --- | --- |
| COC(=O)C1=C(C)NC(C)=C(C(=O)OCc2cccc[n+]2C)[C@H]1c1cccc([N+](=O)[O-])c1 [Example 11, 3-(1-methyl-2-pyridinium)methyl (4S)-1,4-dihydro-2,6-dimethyl-5-methoxycarbonyl-4-(3-nitrophenyl)-pyridine-3-carboxylate iodide] | ≥ 1000 |
| COC(=O)C1=C(C)NC(C)=C(C(=O)OCCC[n+]2ccc(N(C)C)cc2)[C@H]1c1cccc([N+](=O)[O-])c1 [Example 9, 3-(4-dimethylaminopyridinium)propyl (4S)-1,4-dihydro-2,6-dimethyl-5-methoxycarbonyl-4-(3-nitrophenyl)-pyridine-3-carboxylate iodide] | ≥ 1000 |

Second part, the molecule after the results:

| solubility at 0.05 h [µg/mL] | Compound |
| --- | --- |
| ≥ 1000 | COC(=O)C1=C(C)NC(C)=C(C(=O)OCCC[n+]2cccc(C(=O)OC)c2)[C@H]1c1cccc([N+](=O)[O-])c1 [Example 7, 3-(3-methoxycarbonylpyridinium)propyl (4S)-1,4-dihydro-2,6-dimethyl-5-methoxycarbonyl-4-(3-nitrophenyl)-pyridine-3-carboxylate iodide] |
| ≥ 1000 | COC(=O)C1=C(C)NC(C)=C(C(=O)OCCCc2ccc[n+](C)c2)[C@H]1c1cccc([N+](=O)[O-])c1 [Example 12, 3-(1-methyl-3-pyridinium)propyl (4S)-1,4-dihydro-2,6-dimethyl-5-methoxycarbonyl-4-(3-nitrophenyl)-pyridine-3-carboxylate iodide] |
| ≥ 1000 | COC(=O)C1=C(C)NC(C)=C(C(=O)OCCC[n+]2ccn(C)c2)[C@H]1c1cccc([N+](=O)[O-])c1 [Example 6, 3-(1-methylimidazolium)propyl (4S)-1,4-dihydro-2,6-dimethyl-5-methoxycarbonyl-4-(3-nitrophenyl)-pyridine-3-carboxylate iodide] |
| ≥ 1000 | COC(=O)C1=C(C)NC(C)=C(C(=O)OCCC[n+]2cccc(C(N)=O)c2)[C@H]1c1cccc([N+](=O)[O-])c1 [Example 10, 3-(3-carbamoylpyridinium)propyl (4S)-1,4-dihydro-2,6-dimethyl-5-methoxycarbonyl-4-(3-nitrophenyl)-pyridine-3-carboxylate iodide] |
| ≥ 1000 | COC(=O)C1=C(C)NC(C)=C(C(=O)OCCC[n+]2cccc(C#N)c2)[C@H]1c1cccc([N+](=O)[O-])c1 [Example 8, 3-(3-cyanopyridinium)propyl (4S)-1,4-dihydro-2,6-dimethyl-5-methoxycarbonyl-4-(3-nitrophenyl)-pyridine-3-carboxylate iodide] |

Experiment: physchem
Settings: deionized water
Method: The measurements were performed by mixing deionized water with a compound to be tested, subsequently stirring for 3 minutes using a electromagnetic vibrating stirrer, and determining a critical value (solubility) based on presence or absence of insoluble matter.

| Compound | solubility at 0.05 h [µg/mL] |
| --- | --- |
| COC(=O)C1=C(C)NC(C)=C(C(=O)OCCC[n+]2ccncc2)[C@H]1c1cccc([N+](=O)[O-])c1 [Example 3, 3-pyraziniumpropyl (4S)-1,4-dihydro-2,6-dimethyl-5-methoxycarbonyl-4-(3-nitrophenyl)-pyridine-3-carboxylate iodide] | ≥ 1000 |
| COC(=O)C1=C(C)NC(C)=C(C(=O)OCCC[n+]2ccccn2)[C@H]1c1cccc([N+](=O)[O-])c1 [Example 5, 3-pyridaziniumpropyl (4S)-1,4-dihydro-2,6-dimethyl-5-methoxycarbonyl-4-(3-nitrophenyl)-pyridine-3-carboxylate iodide] | ≥ 1000 |
| COC(=O)C1=C(C)NC(C)=C(C(=O)OCCC[n+]2ccsc2)[C@H]1c1cccc([N+](=O)[O-])c1 [Example 4, 3-thiazoliumpropyl (4S)-1,4-dihydro-2,6-dimethyl-5-methoxycarbonyl-4-(3-nitrophenyl)-pyridine-3-carboxylate iodide] | ≥ 1000 |
| COC(=O)C1=C(C)NC(C)=C(C(=O)OCCC[n+]2ccccc2)[C@H]1c1cccc([N+](=O)[O-])c1 [Example 2, 3-pyridiniumpropyl (4S)-1,4-dihydro-2,6-dimethyl-5-methoxycarbonyl-4-(3-nitrophenyl)-pyridine-3-carboxylate iodide] | ≥ 1000 |
